Laboratory results from US7018994B2, “17α-ALKYL-17β-OXY-ESTRATRIENES AND INTERMEDIATE PRODUCTS FOR THEIR PRODUCTION, USE OF THE 17α-ALKYL-17β-OXY-ESTRATRIENES FOR THE PRODUCTION OF PHARMACEUTICAL AGENTS AS WELL AS PHARMACEUTICAL PREPARATIONS” (Schering AG, priority 2001, dated 2006).

Assays:
[1] = system: uterus growth; assay: Uterus growth test on infant rats (test on antiestrogenic action, antiuterotropic action); type: in vivo, rat; conditions: infant female rats, inhibition relative to EB control; for Antiuterotropic Action % Inhib. p.o.: 0.3 (mg/kg of body weight) p.o. once daily for three days with 0.5 μg estradiolbenzoate s.c.
[2] = target: T1, 17β-HSD2 (Homo sapiens, UniProt P37059); assay: Determination of metabolic stability: in-vitro 17β-HSD test, intestinal microsomes; type: in vitro ADME; conditions: LC/MS/MS; for metabolic stability in intestinal microsomes: 37° C., 0-60 minutes, 0.3 μmol in the test batch
T1 construct: Microsome solution: intestinal microsomes (In Vitro Technologies); protein content: 24 mg/ml; tissue In Vitro Technologies; host or cells: intestinal microsomes
T1 sequence (P37059 1-387): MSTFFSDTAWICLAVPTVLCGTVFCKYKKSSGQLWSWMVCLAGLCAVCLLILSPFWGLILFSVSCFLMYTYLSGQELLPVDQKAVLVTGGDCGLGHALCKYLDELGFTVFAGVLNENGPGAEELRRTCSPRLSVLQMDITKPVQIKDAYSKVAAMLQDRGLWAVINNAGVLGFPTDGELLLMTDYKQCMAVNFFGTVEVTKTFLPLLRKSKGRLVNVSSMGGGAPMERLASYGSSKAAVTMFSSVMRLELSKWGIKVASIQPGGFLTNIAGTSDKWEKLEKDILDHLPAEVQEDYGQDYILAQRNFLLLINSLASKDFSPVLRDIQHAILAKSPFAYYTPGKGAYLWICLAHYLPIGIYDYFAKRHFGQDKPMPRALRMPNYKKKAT
Description: Determination of metabolic stability: in-vitro 17β-HSD test
17β-HSD2 mediates the intestinal enzymatic dehydrogenization of an OH group in 17-position of the sterane skeleton into a ketone group.
For this test, the following materials are used:
Na-Phosphate buffer: 100 mmol of Na2HPO4×2H2O and 100 mmol of NaH2PO4×H2O
Test substance solution of
11β-Fluoro-7α-{5-[methyl(8,8,9,9,9-pentafluorononyl)amino]pentyl}-17α-methylestra-1,3,5(10)-triene-3,17β-diol (compound 1, as a representative of the compounds of general formula I) and
11β-Fluoro-7α-{5-[methyl(8,8,9,9,9-pentafluorononyl)amino]pentyl-estra-1,3,5(10)-triene-3,17β-diol (compound 2): […] in MeOH (0.3 μmol in the test batch).
Cofactor solution: 2 ml of glucose-6-phosphate (160 mmol)/MgCl2 (80 mmol) mixture is added to 400 μl of a glucose-6-phosphate-dehydrogenase solution, and then 15.6 mg of NADP and 13.4 mg of NAD are added.
Microsome solution: intestinal microsomes (In Vitro Technologies; protein content: 24 mg/ml; CYP450 content: 0.058 nmol/mg of protein)
In the water bath, it is thawed at 37° C. (˜60 seconds) and diluted with Na-phosphate buffer to a concentration of 5 mg/ml of protein.
In each case, 170 μl/well of the buffer and 5 μl/well of the test substance solutions are introduced into the corresponding wells, whereby double values are applied for each measuring time (0, 10, 20, 30, 45 and 60 minutes).
In each case, 250 μl of ice-cold MeOH is added to the 0-minute values. Then, 25 μl of microsome solution and 50 μl of cofactor solution are added immediately to all wells. The samples of the 0-minute values are stored without incubation at ˜−20° C. for about 24 hours. The other samples are incubated in each case for 10, 20, 30, 45 and 60 minutes at 37° C., and the dehydrogenation reaction is stopped after these times by the addition of 250 μl of ice-cold MeOH in each case. The samples are stored until measurement per LC/MS/MS at ˜−20° C., for about 24 hours and centrifuged at 3000 rpm before analysis, whereby the supernatant is measured.
(§1) The concentrations of the test substances measured per LC/MS/MS and the resulting 17 ketone product are reproduced in FIGS. 2a-2f.

[3] = Metabolic stability in liver microsomes; type: in vitro ADME; conditions: LC/MS/MS
Description: as §1

Molecule | Antiuterotropic Action % Inhib. p.o. [1] | metabolic stability in intestinal microsomes [2] | formation of the 17-ketone product of the 17βHSD-reaction [2] | also measured
11β-Fluoro-7α-{5-[methyl(7,7,8,8,9,9,9-heptafluorononyl)amino]pentyl}-17α-methylestra-1,3,5(10)-triene-3,17β-diol [No. 8] | 94% | – | – | –
11β-Fluoro-7α-{5-[methyl(7,7,8,8,9,9,10,10,10-nonafluorodecyl)amino]pentyl}-17α-methylestra-1,3,5 (10)-triene-3,17β-diol [No. 7] | – | – | – | Antiuterotropic Action % Inhib. s.c. ([1]; 0.03 (mg/kg of body weight) s.c., once daily for three days with 0.5 μg estradiolbenzoate s.c.): 59%
11β-Fluoro-7α-{5-[methyl(8,8,9,9,9-pentafluorononyl)amino]pentyl}-17α-methylestra-1,3,5(10)-triene-3,17β-diol [compound 1] | – | metabolically stable | does not occur in any of the tissues | formation of the 17-ketone product of the 17βHSD-reaction [3]: does not occur in any of the tissues; metabolic stability in liver microsomes [3]: not in liver microsomes
CN(CCCCCCCC(F)(F)C(F)(F)F)CCCCC[C@@H]1Cc2cc(O)ccc2[C@@H]2[C@@H]1[C@@H]1CC[C@H](O)[C@@]1(C)C[C@@H]2F [compound 2, reference compound] | – | degraded | the corresponding 17-ketone is produced | –
CN(CCCCCCCC(F)(F)C(F)(F)F)CCCCC[C@@H]1Cc2cc(O)ccc2[C@@H]2[C@@H]1[C@@H]1CCC(=O)[C@@]1(C)C[C@@H]2F [compound 3, 11β-fluoro-7α-{5-[methyl(8,8,9,9,9-pentafluorononyl)amino]pentyl}-estra-1,3,5(10)-trien-3-ol-17-one] | 76% | – | – | –
